Reference: patent US12187723B2 (BRISTOL-MYERS SQUIBB COMPANY, priority 2019, dated 2025)

biological target: T1, human TLR8 (Homo sapiens, UniProt Q9NR97); assay: TLR8 inhibition reporter assay (HEK-Blue SEAP); assay type: cell-based; conditions: HEK-Blue cells overexpressing human TLR8, R848 15.9 μM, 22 hour incubation
T1 construct: host or cells: HEK-Blue cells
T1 sequence (Q9NR97 27-1041): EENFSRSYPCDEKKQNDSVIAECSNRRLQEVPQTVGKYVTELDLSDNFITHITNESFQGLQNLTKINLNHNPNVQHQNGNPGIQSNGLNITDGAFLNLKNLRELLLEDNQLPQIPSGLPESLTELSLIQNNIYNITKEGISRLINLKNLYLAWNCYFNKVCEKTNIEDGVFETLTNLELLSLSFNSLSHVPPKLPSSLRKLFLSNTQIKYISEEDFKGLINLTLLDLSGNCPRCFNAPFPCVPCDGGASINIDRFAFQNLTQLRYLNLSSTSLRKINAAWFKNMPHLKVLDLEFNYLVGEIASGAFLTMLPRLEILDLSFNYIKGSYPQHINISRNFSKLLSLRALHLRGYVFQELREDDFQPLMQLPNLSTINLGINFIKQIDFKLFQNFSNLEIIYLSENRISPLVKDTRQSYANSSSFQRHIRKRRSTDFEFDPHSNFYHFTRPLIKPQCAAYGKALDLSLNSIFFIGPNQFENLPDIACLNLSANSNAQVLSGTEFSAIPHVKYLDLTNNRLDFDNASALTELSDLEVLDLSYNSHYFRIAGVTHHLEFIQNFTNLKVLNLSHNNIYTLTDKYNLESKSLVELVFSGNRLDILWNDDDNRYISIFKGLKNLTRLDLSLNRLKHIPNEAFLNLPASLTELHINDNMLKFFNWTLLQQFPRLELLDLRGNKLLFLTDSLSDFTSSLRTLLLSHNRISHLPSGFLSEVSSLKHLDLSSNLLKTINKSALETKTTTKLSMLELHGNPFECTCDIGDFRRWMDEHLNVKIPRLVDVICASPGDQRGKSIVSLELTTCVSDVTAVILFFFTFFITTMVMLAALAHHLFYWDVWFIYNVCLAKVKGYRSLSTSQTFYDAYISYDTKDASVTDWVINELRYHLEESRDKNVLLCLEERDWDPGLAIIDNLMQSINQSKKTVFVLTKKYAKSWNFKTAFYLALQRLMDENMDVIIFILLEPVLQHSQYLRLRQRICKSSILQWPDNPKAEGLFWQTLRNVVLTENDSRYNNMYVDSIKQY
Summary of the method: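 Agonists used: gardiquimod 7.5 μM (TLR7), R848 15.9 μM (TLR8), ODN2006 5 nM (TLR9), added after 30 min room-temperature compound pre-treatment (0.05 nM–50 μM) of receptor-overexpressing HEK-Blue cells. SEAP reporter (NF-κB/AP-1 driven) read after 22 h at 37 °C; inhibition scaled between agonist+DMSO and reference-inhibitor wells.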

IC50 [nM] | SMILES
10.1 | COc1cc(-c2cc3[nH]c(=O)n([C@H]4CCCN(CCC(C)C)C4)c3cc2C(C)C)cn2ncnc12 [Example 132, (S)-1-(1-isopentylpiperidin-3-yl)-6-isopropyl-5-(8-methoxy-[1,2,4]triazolo[1,5-a]pyridin-6-yl)-1,3-dihydro-2H-benzo[d]imidazol-2-one]
5.02 | CCN1CCC[C@@H](n2c(=O)[nH]c3cc(-c4cc(OC)c5ncnn5c4)c(C(C)C)cc32)C1 (single isomer, unassigned) [Example 144]
2.2 | COc1cc(-c2cc3[nH]c(=O)n([C@@H]4CCCN(CC5CC5)C4)c3cc2C(C)C)cn2ncnc12 [Example 142, (R)-1-(1-(cyclopropylmethyl)piperidin-3-yl)-6-isopropyl-5-(8-methoxy-[1,2,4]triazolo[1,5-a]pyridin-6-yl)-1,3-dihydro-2H-benzo[d]imidazol-2-one]
0.56 | COc1cc(-c2cc3[nH]c(=O)n([C@@H]4CCCN(CC(C)C)C4)c3cc2C(C)C)cn2ncnc12 [Example 141, (R)-1-(1-isobutylpiperidin-3-yl)-6-isopropyl-5-(8-methoxy-[1,2,4]triazolo[1,5-a]pyridin-6-yl)-1,3-dihydro-2H-benzo[d]imidazol-2-one]

Further lines, the molecule ahead of its results:

SMILES | IC50 [nM]
COCCN1CCC[C@@H](n2c(=O)[nH]c3cc(-c4cc(C)c5ncnn5c4)c(C)cc32)C1 [Example 97, (R)-1-(1-(2-methoxyethyl)piperidin-3-yl)-6-methyl-5-(8-methyl-[1,2,4]triazolo[1,5-a]pyridin-6-yl)-1,3-dihydro-2H-benzo[d]imidazol-2-one] | 43.7
COc1cc(-c2cc3[nH]c(=O)n(C4CCN(C(=O)CN(C)C)CC4)c3cc2C)cn2ncnc12 [Example 100, 1-(1-(2-(dimethylamino)acetyl)piperidin-4-yl)-5-(8-methoxy-[1,2,4]triazolo[1,5-a]pyridin-6-yl)-6-methyl-1H-benzo[d]imidazol-2(3H)-one] | 175
Cc1cc(-c2ccc3c(c2)[nH]c(=O)n3C2CCN(C(=O)CN(C)C)CC2)cn2ncnc12 [Example 102, 1-(1-(dimethylglycyl)piperidin-4-yl)-5-(8-methyl-[1,2,4]triazolo[1,5-a]pyridin-6-yl)-1,3-dihydro-2H-benzo[d]imidazol-2-one] | > 3130
Cc1c(-c2cc3[nH]c(=O)n([C@@H]4CCCN(CC5CCOCC5)C4)c3cc2C(C)C)cn2ncnc2c1C [Example 149, (R)-5-(7,8-dimethyl-[1,2,4]triazolo[1,5-a]pyridin-6-yl)-6-isopropyl-1-(1-((tetrahydro-2H-pyran-4-yl)methyl)piperidin-3-yl)-1,3-dihydro-2H-benzo[d]imidazol-2-one] | 4.58
CCN1CCC(n2c(=O)[nH]c3cc(-c4cc(OC)c5ncnn5c4)c(C)cc32)CC1 [Example 9, 1-(1-ethylpiperidin-4-yl)-5-(8-methoxy-[1,2,4]triazolo[1,5-a]pyridin-6-yl)-6-methyl-1,3-dihydro-2H-benzo[d]imidazol-2-one] | 92.7
COc1cc(-c2cc3[nH]c(=O)n([C@@H]4CCCN(C(C)C)C4)c3cc2C(C)C)cn2ncnc12 [Example 137, (R)-6-isopropyl-1-(1-isopropylpiperidin-3-yl)-5-(8-methoxy-[1,2,4]triazolo[1,5-a]pyridin-6-yl)-1,3-dihydro-2H-benzo[d]imidazol-2-one] | 1.37
COc1cc(-c2cc3[nH]c(=O)n([C@H]4CCCN(C5COC5)C4)c3cc2C(C)C)cn2ncnc12 [Example 123, (S)-6-isopropyl-5-(8-methoxy-[1,2,4]triazolo[1,5-a]pyridin-6-yl)-1-(1-(oxetan-3-yl)piperidin-3-yl)-1,3-dihydro-2H-benzo[d]imidazol-2-one] | 5.56
CCCN1CCC(n2c(=O)[nH]c3cc(-c4cc(C)c5ncnn5c4)c(C)cc32)CC1 [Example 7, 6-methyl-5-(8-methyl-[1,2,4]triazolo[1,5-a]pyridin-6-yl)-1-(1-propylpiperidin-4-yl)-1,3-dihydro-2H-benzo[d]imidazol-2-one] | 48.6
